Data reported in PubChem BioAssay AID1918998 (Molecular Pharmacology Branch, DTP, NCI, 2023).

Test system: 521955-158-R2-J5-PDC complex spheroid growth
Assay: Anticancer human tumor 521955-158-R2-J5-PDC patient-derived pancreatic carcinoma cell line growth inhibition [AhR]
Conditions: for IC50: curve of first compound; for viability, T/C: stronger effect = lower value
How it was run: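 Spheroids combined tumor cells with HUVEC endothelial cells and human MSCs as stroma. AhR antagonists were paired with standard or investigational drugs, each dosed in half-log steps down from near clinical Cmax, or from 10 microM where Cmax was unknown.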

[1] = second compound 0.1 µM, first compound 0.00316 µM
[2] = second compound 0.1 µM, first compound 0.01 µM
[3] = second compound 0.1 µM, first compound 0.0316 µM
[4] = second compound 0.1 µM, first compound 0.1 µM
[5] = second compound 0.316 µM, first compound 0.00316 µM
[6] = second compound 0.316 µM, first compound 0.01 µM
[7] = second compound 0.316 µM, first compound 0.0316 µM
[8] = second compound 0.316 µM, first compound 0.1 µM
[9] = second compound 1 µM, first compound 0.00316 µM
[10] = second compound 1 µM, first compound 0.01 µM
[11] = second compound 1 µM, first compound 0.0316 µM
[12] = second compound 1 µM, first compound 0.1 µM
[13] = second compound 3.16 µM, first compound 0.00316 µM
[14] = second compound 3.16 µM, first compound 0.01 µM
[15] = second compound 3.16 µM, first compound 0.0316 µM
[16] = second compound 3.16 µM, first compound 0.1 µM
[17] = second compound 10 µM, first compound 0.00316 µM
[18] = second compound 10 µM, first compound 0.01 µM
[19] = second compound 10 µM, first compound 0.0316 µM
[20] = second compound 10 µM, first compound 0.1 µM
[21] = second compound 0.1 µM, first compound 0.316 µM
[22] = second compound 0.1 µM, first compound 1 µM
[23] = second compound 0.1 µM, first compound 3.16 µM
[24] = second compound 0.1 µM, first compound 10 µM
[25] = second compound 0.316 µM, first compound 0.316 µM
[26] = second compound 0.316 µM, first compound 1 µM
[27] = second compound 0.316 µM, first compound 3.16 µM
[28] = second compound 0.316 µM, first compound 10 µM
[29] = second compound 1 µM, first compound 0.316 µM
[30] = second compound 1 µM, first compound 1 µM
[31] = second compound 1 µM, first compound 3.16 µM
[32] = second compound 1 µM, first compound 10 µM
[33] = second compound 3.16 µM, first compound 0.316 µM
[34] = second compound 3.16 µM, first compound 1 µM
[35] = second compound 3.16 µM, first compound 3.16 µM
[36] = second compound 3.16 µM, first compound 10 µM
[37] = second compound 10 µM, first compound 0.316 µM
[38] = second compound 10 µM, first compound 1 µM
[39] = second compound 10 µM, first compound 3.16 µM
[40] = second compound 10 µM, first compound 10 µM
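Wherever viability, T/C is given: spheroids mix tumor cells with HUVEC endothelium and human MSC stroma; luminescence taken as viability surrogate after a week of drug exposure.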

| SMILES | IC50 (second compound 0.1 µM) [nM] | IC50 (second compound 0.316 µM) [nM] | IC50 (second compound 1 µM) [nM] | IC50 (second compound 3.16 µM) [nM] | IC50 (second compound 10 µM) [nM] | viability, T/C [3] [%] | viability, T/C [4] [%] | viability, T/C [7] [%] | viability, T/C [8] [%] | viability, T/C [11] [%] | viability, T/C [12] [%] | viability, T/C [15] [%] | viability, T/C [16] [%] | viability, T/C [19] [%] | viability, T/C [20] [%] | viability, T/C [21] [%] | viability, T/C [22] [%] | viability, T/C [25] [%] | viability, T/C [26] [%] | viability, T/C [29] [%] | other results |
| --- | --- | --- | --- | --- | --- | --- | --- | --- | --- | --- | --- | --- | --- | --- | --- | --- | --- | --- | --- | --- | --- |
| COc1cc(C2c3cc4c(cc3C(OC3OC5COC(C)OC5C(O)C3O)C3COC(=O)C23)OCO4)cc(OC)c1O (stereo not given) + Cc1ccccc1N=Nc1ccc(NC(=O)c2ccnn2C)c(C)c1 | 755 | 668 | 1010 | 880 | 1580 | 99.3 | 78.2 | 83.6 | 108 | 131 | 97.3 | 139 | 118 | 131 | 140 | 81.2 | 39 | 83.4 | 31.9 | 80 | viability, T/C [23]: 26%; viability, T/C [24]: 17.6%; viability, T/C [27]: 23.9%; viability, T/C [28]: 20%; viability, T/C [30]: 49%; viability, T/C [31]: 22.8%; viability, T/C [32]: 18.4%; viability, T/C [33]: 104%; viability, T/C [34]: 40.6%; viability, T/C [35]: 27.3%; viability, T/C [36]: 17.9%; viability, T/C [37]: 112%; viability, T/C [38]: 59.9%; viability, T/C [39]: 38.5%; viability, T/C [40]: 22.9% |
| COc1cccc2c1C(=O)c1c(O)c3c(c(O)c1C2=O)CC(O)(C(=O)CO)CC3OC1CC(N)C(O)C(C)O1 (stereo not given) + Cc1ccccc1N=Nc1ccc(NC(=O)c2ccnn2C)c(C)c1 | < 31.6 | 36.9 | 42.1 | < 31.6 | 165 | 40.6 | 34.4 | 53.9 | 33.6 | 55 | 34.9 | 55.6 | 39.9 | 89.7 | 63 | 28.5 | 6.16 | 34 | 7.86 | 30.1 | viability, T/C [23]: 2.14%; viability, T/C [24]: 9.5%; viability, T/C [27]: 3.02%; viability, T/C [28]: 11.5%; viability, T/C [30]: 4.75%; viability, T/C [31]: 2.47%; viability, T/C [32]: 11.2%; viability, T/C [33]: 34.3%; viability, T/C [34]: 6.42%; viability, T/C [35]: 4.98%; viability, T/C [36]: 9.42%; viability, T/C [37]: 34.4%; viability, T/C [38]: 3.83%; viability, T/C [39]: 2.39%; viability, T/C [40]: 7.28% |
| Nc1ncn(C2CC(O)C(CO)O2)c(=O)n1 (stereo not given) + Cc1ccccc1N=Nc1ccc(NC(=O)c2ccnn2C)c(C)c1 | > 1000 | 811 | > 1000 | > 1000 | > 1000 | 92.4 | 62.6 | 86.6 | 83.8 | 96.6 | 90.2 | 110 | 88.3 | 140 | 127 | 55.5 | 50.7 | 61.9 | 47.4 | 94.2 | viability, T/C [1]: 79%; viability, T/C [2]: 86.1%; viability, T/C [5]: 88.5%; viability, T/C [6]: 104%; viability, T/C [9]: 90.5%; viability, T/C [10]: 126%; viability, T/C [30]: 65.4%; viability, T/C [13]: 106%; viability, T/C [14]: 120%; viability, T/C [33]: 104%; viability, T/C [34]: 67.1%; viability, T/C [17]: 138%; viability, T/C [18]: 147%; viability, T/C [37]: 95.2%; viability, T/C [38]: 88% |

Further compounds by falling IC50 (second compound 0.1 µM), results first:

| IC50 (second compound 0.1 µM) [nM] | IC50 (second compound 0.316 µM) [nM] | IC50 (second compound 1 µM) [nM] | IC50 (second compound 3.16 µM) [nM] | IC50 (second compound 10 µM) [nM] | SMILES | viability, T/C [3] [%] | viability, T/C [4] [%] | viability, T/C [7] [%] | viability, T/C [8] [%] | viability, T/C [11] [%] | viability, T/C [12] [%] | viability, T/C [15] [%] | viability, T/C [16] [%] | viability, T/C [19] [%] | viability, T/C [20] [%] | viability, T/C [21] [%] | viability, T/C [22] [%] | viability, T/C [25] [%] | viability, T/C [26] [%] | viability, T/C [29] [%] | other results |
| --- | --- | --- | --- | --- | --- | --- | --- | --- | --- | --- | --- | --- | --- | --- | --- | --- | --- | --- | --- | --- | --- |
| 267 | 501 | 448 | 405 | 338 | Nc1ccn(C2OC(CO)C(O)C2(F)F)c(=O)n1 (stereo not given) + Cc1ccccc1N=Nc1ccc(NC(=O)c2ccnn2C)c(C)c1 | 76.7 | 52.4 | 66.8 | 52.7 | 66.5 | 52.5 | 91.2 | 69.1 | 107 | 93.8 | 57 | 28.4 | 85.8 | 22.3 | 71.2 | viability, T/C [23]: 13.3%; viability, T/C [24]: 14.5%; viability, T/C [27]: 13.5%; viability, T/C [28]: 12.5%; viability, T/C [30]: 19.2%; viability, T/C [31]: 13.5%; viability, T/C [32]: 12.4%; viability, T/C [33]: 62.3%; viability, T/C [34]: 21.8%; viability, T/C [35]: 13.2%; viability, T/C [36]: 14.4%; viability, T/C [37]: 52.1%; viability, T/C [38]: 21.6%; viability, T/C [39]: 17.8%; viability, T/C [40]: 15.6% |
| 27.2 | 17.5 | 26.9 | 22.2 | 43.9 | CC[C@@]1(O)C(=O)OCc2c1cc1n(c2=O)Cc2cc3c(CN(C)C)c(O)ccc3nc2-1 + Cc1ccccc1N=Nc1ccc(NC(=O)c2ccnn2C)c(C)c1 | 45.7 | 23 | 34.7 | 25.2 | 44.6 | 22.9 | 41.1 | 25.6 | 59.9 | 26.3 |  |  |  |  |  | viability, T/C (second compound 0.1 µM, first compound 0.000316 µM): 76.7%; viability, T/C (second compound 0.1 µM, first compound 0.001 µM): 79.3%; viability, T/C [1]: 89.5%; viability, T/C [2]: 78.6%; viability, T/C (second compound 0.316 µM, first compound 0.000316 µM): 92.1%; viability, T/C (second compound 0.316 µM, first compound 0.001 µM): 100%; viability, T/C [5]: 88.8%; viability, T/C [6]: 64.7%; viability, T/C (second compound 1 µM, first compound 0.000316 µM): 98.2%; viability, T/C (second compound 1 µM, first compound 0.001 µM): 113%; viability, T/C [9]: 114%; viability, T/C [10]: 87.8%; viability, T/C (second compound 3.16 µM, first compound 0.000316 µM): 119%; viability, T/C (second compound 3.16 µM, first compound 0.001 µM): 131%; viability, T/C [13]: 122%; viability, T/C [14]: 77.3%; viability, T/C (second compound 10 µM, first compound 0.000316 µM): 130%; viability, T/C (second compound 10 µM, first compound 0.001 µM): 122%; viability, T/C [17]: 131%; viability, T/C [18]: 107% |
